Data published in the supplement of paper PMC13380429.
± gives the standard deviation of the averaged measurements.

What was measured:
Settings in all cases: 72 h
[1] = tested on: Caco-2; assay: drug sensitivity score (DSS) for viability; higher = more toxic; extreme values may be limits of the assay
[2] = tested on: Vero E6; assay: as above
[3] = tested on: Calu-3; assay: as above
[4] = tested on: HepG2; assay: as above
[5] = tested on: U2OS; assay: as above
[6] = tested on: Caco-2; assay: relative viability EC50 (midpoint between 100% and the lowest measured viability); higher = less toxic
[7] = tested on: Vero E6; assay: as above
[8] = tested on: Calu-3; assay: as above
[9] = tested on: HepG2; assay: as above
[10] = tested on: U2OS; assay: as above
[11] = tested on: Caco-2; assay: cell viability relative to DMSO; higher = less toxic
[12] = tested on: Vero E6; assay: as above
[13] = tested on: Calu-3; assay: as above
[14] = tested on: HepG2; assay: as above
[15] = tested on: U2OS; assay: as above

Row | Compound | drug sensitivity score [1] | drug sensitivity score [2] | drug sensitivity score [3] | drug sensitivity score [4] | drug sensitivity score [5] | relative viability EC50 [6] | relative viability EC50 [7] | relative viability EC50 [8] | relative viability EC50 [9] | relative viability EC50 [10] | cell viability ([11]; 1 nM) | cell viability ([11]; 10 nM) | cell viability ([11]; 100 nM) | cell viability ([11]; 1000 nM) | cell viability ([11]; 10000 nM) | cell viability ([12]; 1 nM) | cell viability ([12]; 10 nM) | cell viability ([12]; 100 nM) | cell viability ([12]; 1000 nM) | cell viability ([12]; 10000 nM) | cell viability ([13]; 1 nM) | cell viability ([13]; 10 nM) | cell viability ([13]; 100 nM) | cell viability ([13]; 1000 nM) | cell viability ([13]; 10000 nM) | cell viability ([14]; 1 nM) | cell viability ([14]; 10 nM) | cell viability ([14]; 100 nM) | cell viability ([14]; 1000 nM) | cell viability ([14]; 10000 nM) | cell viability ([15]; 1 nM) | cell viability ([15]; 10 nM) | cell viability ([15]; 100 nM) | cell viability ([15]; 1000 nM) | cell viability ([15]; 10000 nM)
1 | CC1CNc2c(cccc2S(=O)(=O)N[C@@H](CCCNC(=N)N)C(=O)N2CC[C@@H](C)C[C@@H]2C(=O)O)C1 (mixture of isomers) [argatroban] | 0 | 0 | 0 | 0 | 0 | > 10 µM | > 10 µM | > 10 µM | > 10 µM | > 10 µM | 96.5% | 97.1% | 86.3% | 105% | 94.3% | 97.7% | 99.1% | 99.2% | 93.4% | 102% | 91.3% | 97.4% | 98.7% | 93.8% | 94.6% | 113% | 93.7% | 96.1% | 87.4% | 97.8% | 98.2% | 104% | 98.9% | 102% | 96.2%
2 | CC(C)[C@H](N)C(=O)OCC(CO)OCn1cnc2c(=O)nc(N)[nH]c21 (mixture of isomers) [valganciclovir] | 0.3 | 0 | 0 | 0 | 0 | > 10 µM | > 10 µM | > 10 µM | > 10 µM | > 10 µM | 94.3% | 107% | 103% | 114% | 80% | 99.3% | 91.8% | 103% | 97.4% | 97.4% | 107% | 101% | 108% | 104% | 91.8% | 97.9% | 95% | 97.3% | 95.8% | 90.5% | 90.7% | 102% | 98.2% | 104% | 108%
3 | CN(C)CC[C@@]1(c2ccc(Cl)cc2)Cc2ccccc2C(=O)O1 (racemic) [AC-7954-(+/-)] | 0 | 0 | 0 | 0 | 0 | > 10 µM | > 10 µM | > 10 µM | > 10 µM | > 10 µM | 103% | 92.4% | 98.3% | 102% | 106% | 91.4% | 94.8% | 88.3% | 92.8% | 100% | 98.2% | 104% | 103% | 96.5% | 104% | 89.8% | 104% | 104% | 96.4% | 94.8% | 99% | 94.9% | 99.4% | 105% | 102%
4 | CN/C(=N\S(=O)(=O)c1ccc(Cl)cc1)N1C[C@H](c2ccccc2)C(c2ccc(Cl)cc2)=N1 (racemic) [SLV-319-(+/-)] | 0.2 | 0 | 0 | 0.1 | 0 | > 10 µM | > 10 µM | > 10 µM | > 10 µM | > 10 µM | 95.1% | 96.3% | 100% | 103% | 83.1% | 98.1% | 105% | 100% | 91.3% | 94.8% | 107% | 98.5% | 100% | 118% | 111% | 108% | 94.2% | 99.9% | 89.6% | 93.7% | 99.9% | 99.1% | 102% | 98.9% | 93.1%
5 | C[C@@H](C(=O)O)c1ccc(-c2ccccc2)c(F)c1 (racemic) [flurbiprofen-(+/-)] | 0 | 0 | 0.0333 ± 0.058 | 0 | 0 | > 10 µM | > 10 µM | > 10 µM | > 10 µM | > 10 µM | 98.7 ± 8% | 95.2 ± 2.5% | 95.5 ± 4% | 96 ± 3.3% | 96 ± 8.2% | 100 ± 1.8% | 100 ± 1.6% | 97.15 ± 0.92% | 95.7 ± 6.5% | 97.2 ± 1.3% | 92.6 ± 3.4% | 98.7 ± 5.3% | 93.3 ± 9.1% | 96.3 ± 3.1% | 98.3 ± 12% | 94.95 ± 0.21% | 101 ± 9.9% | 94.9 ± 4% | 101 ± 2.8% | 100 ± 1.4% | 101.1 ± 1% | 100 ± 7.2% | 99.4 ± 2.7% | 99 ± 2.2% | 96.4 ± 5%
6 | NC(Cc1ccc(I)cc1)C(=O)O (stereo in doubt) [4-iodo-L-phenylalanine] | 0 | 0 | 0 | 0 | 0 | > 10 µM | > 10 µM | > 10 µM | > 10 µM | > 10 µM | 102% | 97.4% | 98.2% | 97.3% | 106% | 96.7% | 99.2% | 97.4% | 94.4% | 103% | 103% | 101% | 106% | 108% | 95.2% | 96.3% | 101% | 82.5% | 104% | 109% | 102% | 97.8% | 98.8% | 102% | 97.6%
7 | O=C(O)c1cc(O)c2c(Cl)cc(Cl)cc2n1 [5,7-dichlorokynurenic-acid] | 0 | 0 | 0 | 0 | 0 | > 10 µM | > 10 µM | > 10 µM | > 10 µM | > 10 µM | 98.7% | 98.1% | 96.1% | 92.1% | 96.8% | 95.3% | 96.4% | 100% | 98.6% | 98.3% | 105% | 99.8% | 98.8% | 110% | 112% | 96.3% | 99.3% | 106% | 96.5% | 102% | 96% | 98.2% | 98.2% | 103% | 95.7%
8 | CC[C@@]1(O)C(=O)OCc2c1cc1n(c2=O)Cc2cc3cc(O)ccc3nc2-1 [10-hydroxycamptothecin] | 12.2 | 9.1 | 20.5 | 31.8 | 12.7 | 0.573 µM | 0.9 µM | 0.0695 µM | 0.0158 µM | 0.715 µM | 94.2% | 107% | 89.3% | 43% | 13.2% | 97.4% | 97.5% | 92.9% | 59.9% | 22.5% | 95.8% | 97.5% | 48.7% | 31.4% | 20.2% | 102% | 47.8% | 31.2% | 5.3% | 2.1% | 102% | 106% | 90.1% | 41.6% | 1.7%
9 | CC(C)(C)c1cc(C=C(C#N)C#N)cc(Br)c1O [AG-1024] | 1.7 | 0 | 0 | 0.3 | 0 | > 10 µM | > 10 µM | > 10 µM | > 10 µM | > 10 µM | 98.8% | 96.8% | 101% | 93.3% | 77.4% | 102% | 96.8% | 98.1% | 94.8% | 92.4% | 104% | 92.4% | 92% | 87.8% | 100% | 102% | 110% | 109% | 119% | 79.8% | 105% | 106% | 102% | 96.4% | 99.2%
10 | Cc1ccccc1C(C(=O)NC1CCCCC1)N(C(=O)Cn1ccnc1C)c1cccc(F)c1 (stereo not given) [AGI-5198] | 0 | 0 | 0.8 | 0 | 0 | > 10 µM | > 10 µM | > 10 µM | > 10 µM | > 10 µM | 98.4% | 97.5% | 87.9% | 103% | 90.6% | 100% | 100% | 98.9% | 99.2% | 101% | 93.6% | 95.7% | 85.4% | 90.3% | 87.4% | 103% | 99.3% | 112% | 88.6% | 103% | 96.6% | 103% | 102% | 106% | 93.2%
11 | N#C/C(=C\c1cccn1S(=O)(=O)c1cccc([N+](=O)[O-])c1)S(=O)(=O)c1ccc(F)cc1 [AMZ30] | 0.4 | 0 | 0 | 0 | 0 | > 10 µM | > 10 µM | > 10 µM | > 10 µM | > 10 µM | 104% | 99% | 95.3% | 96.3% | 84.8% | 98.6% | 97.6% | 96.4% | 94.9% | 93.3% | 90.5% | 98% | 104% | 105% | 108% | 95.8% | 105% | 119% | 93.7% | 103% | 102% | 101% | 96.8% | 96.2% | 94.1%
